Test results as given in article PMC6943918 (The Biochemical journal, 2014).

Target: T1, ZmTenA_E (maize TenA_E, GRMZM2G080501) (Zea mays, UniProt B6TPF2)
T1 sequence (B6TPF2 1-224): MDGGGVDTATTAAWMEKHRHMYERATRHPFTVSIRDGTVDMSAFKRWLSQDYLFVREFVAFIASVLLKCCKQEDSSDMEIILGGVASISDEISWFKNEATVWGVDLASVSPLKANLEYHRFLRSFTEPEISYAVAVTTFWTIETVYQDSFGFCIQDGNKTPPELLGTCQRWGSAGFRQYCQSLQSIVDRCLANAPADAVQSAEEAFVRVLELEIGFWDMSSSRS
Assay: HPLC-UV
Format: biochemical
Settings: amino-HMP aminohydrolase; 100 nmol substrate, 50 μg enzyme, 4 h, 30°C

## Cc1ncc(CN)c(N)n1 [Amino-HMP, 4-amino-5-aminomethyl-2-methylpyrimidine]
  HPLC-UV (235 nm) hydrolysis assay: both plant TenA_E proteins had some activity against amino-HMP
